According to paper PMC10882959, “Gas-Selective Catalytic Regulation by a Newly Identified Globin-Coupled Sensor Phosphodiesterase Containing an HD-GYP Domain from the Human Pathogen Vibrio fluvialis” (Biochemistry, 2024):
Several values for one entry are separate records, joined by “and”; a condition that tells them apart may be missing. Identical values can stand only once.

Experiments:
V. furnissii GCS-HD-GYP = target: T1, V. furnissii GCS-HD-GYP (Vibrio furnissii, UniProt A0A0Q2RS25); assay: HPLC hydrolysis assay, […] nm; assay type: biochemical; conditions: 1 mM MnCl2, pH 8.0, 20 °C; Fe(III) heme form; optimal conditions of V. fluvialis enzyme
T1 construct: gene AMR76_07425; full length, C-terminal His6 tag kept, pET-21a (codon-optimized), E. coli host; dimer

[1] = target: T2, GCS-HD-GYP (V. fluvialis) (Vibrio fluvialis, UniProt A0AAX2LUU7); assay: HPLC hydrolysis assay, […] nm; assay type: biochemical; conditions: 1 mM MnCl2, pH 8.0, 20 °C
T2 construct: gene AL536_01530; full length, C-terminal His6 tag kept, pET-21a (codon-optimized), E. coli BL21(DE3), heme-reconstituted in crude extract; mainly dimer (85 kDa by SEC)

[2] = target: the molecule itself; assay: SEC; Superdex 200 Increase 10/300 GL, 50 mM Tris-HCl pH 8.0, 100 mM NaCl; 100 uL of 20 uM protein injected; mass estimated from standard proteins

Nc1nc2c(ncn2[C@@H]2O[C@@H]3COP(=O)(O)O[C@H]4[C@@H](O)[C@H](n5cnc6c(=O)[nH]c(N)nc65)O[C@@H]4COP(=O)(O)O[C@H]3[C@H]2O)c(=O)[nH]1 [c-di-GMP]
HPLC hydrolysis assay, 254 nm (V. furnissii GCS-HD-GYP): the specific activity for the PDE activity of the Fe(III) complex of V. furnissii GCS-HD-GYP | HPLC hydrolysis assay, 254 nm ([1]; 0.1 mM c-di-GMP, Fe(III) or Fe(II)-O2 heme form): The Fe(III) and Fe(II)-O2 complexes of GCS-HD-GYP catalyzed the hydrolysis of c-di-GMP to form pGpG

Nc1nc2c(ncn2[C@@H]2O[C@H](COP(=O)(O)O[C@H]3[C@@H](O)[C@H](n4cnc5c(=O)[nH]c(N)nc54)O[C@@H]3COP(=O)(O)O)[C@@H](O)[C@H]2O)c(=O)[nH]1 [pGpG]
HPLC hydrolysis assay, 254 nm ([1]; product of c-di-GMP hydrolysis, Fe(III) heme form): conversion of c-di-GMP to a new compound, namely its linearized product pGpG

B1: Vibrio furnissii GCS-HD-GYP (enzyme, UniProt A0A0Q2RS25 1-375, looked up)
chain: MEVAFGSDPGNAIRRWASYLAIDQQTVDALREYYWIMERNIDEVLAFVYDHLSSCPETAQFYQNEQSIVRARGHLRDHLMLYVFRGHFGVDYYNATIRIGQTHQRLGIDFKVYSGAYCIVMSQLARVVYQSLAPNIDNIHRYMSALNRAIFLDLGLATAVYYDTACFELEELAYELNFALAKAGEFRDNETGEHIKRISRMSFELAKALGQPAHWCKMIQIASPLHDVGKIGVPDEILLKPGKLDADEWKLMQQHPAIGGDIIPDNKSELIRMARRISLTHHEKWDGSGYPAGLAGEEIPLEGRIVAICDVFDALLSTRPYKRAWSVAEVVAYLRENRAKHFDPLLLDCFLEHLDSMLHIRHQFEDAAQPETVAD
notes: GCS-HD-GYP of Vibrio furnissii, gene AMR76_07425, UniProtKB A0A0Q2RS25; molecular mass 43.9 kDa with the C-terminal His6 tag; The synthetic, codon-optimised gene was put into pET-21a (NdeI/XhoI); also called V. furnissii GCS-HD-GYP; AMR76_07425; source: E. coli, purified; not shown: His6, C-terminal, kept
stoichiometry N [2]: 2

B2: Vibrio fluvialis GCS-HD-GYP (globin-coupled sensor phosphodiesterase containing an HD-GYP domain) (enzyme, UniProt A0AAX2LUU7 1-375, looked up)
chain: METAFSSEPESVIRRWASYLVIDQQTLNTLREFYWVMEQNIDDILSHVYAHLSSNRETAHFYQDEQSVKRAKAHQREHMMRYVFRGNFGAEYYNATNRIGKTHHKLGIDFKIYSGAYCIVLSQLAGVVYKVLAPEIGNVQRYMTALNRVIFMDMGLATSVYYDTACLELEELAHELNFALAKAGEFRDNETGEHIKRISRMSFELAKAAGQEPHWCKMIQIASPLHDVGKIGVPDDILLKPGKLDEQEWNVMQQHPAMGGVIIPDNKSELIRMARRISLTHHEKWDGSGYPAGLKGEEIPLEGRIVAICDVFDALLSTRPYKRPWSMEEVGTYLRDNRGKHFDPQLLDIFIENLANMQLIRCQFEDAVSPEIVAD
notes: GCS-HD-GYP of Vibrio fluvialis, gene AL536_01530, UniProtKB A0A120L350; full-length protein, predicted mass 44.1 kDa with the C-terminal His6 tag; globin domain residues 1-166, HD-GYP domain residues 169-366; Synthetic, codon-optimised gene in pET-21a (NdeI/XhoI); Mostly a dimer, with a minor tetramer peak by SEC; also called V. fluvialis GCS-HD-GYP; AL536_01530; source: E. coli BL21(DE3), …
stoichiometry N [2]: 2 and 4
